Test results published in PMC6327852 (Journal of cellular physiology, 2016).

Experiments:
[1] = system: influenza A and B viruses; test: Influenza virus-mediated cell lysis, live/dead assay in MRC5 cells; assay type: cell-based, human
[2] = system: glucosidase I, glucosidase IIα, glucosidase IIβ; test: Immuno-fluorescence of glucosidases in GBM12 cells; assay type: cell-based; details: 2.0 μM, 6 h
[3] = biological target: HSP70 ATPase (Homo sapiens, UniProt P0DMV8); test: ATPase activity of immuno-precipitated HSP70-GFP; details: 30 nM - 1 μM, 30 min at 37 °C
[4] = biological target: HSP27 (Homo sapiens, UniProt P04792); test: Immuno-fluorescence of HSP27 expression in GBM cells; details: GBM5, GBM6, GBM12 cells, 0–3.0 μM, 3 h
[5] = system: HSP90 ATPase; test: ATPase activity of immuno-precipitated FLAG-tagged HSP90; details: 30 nM - 1 μM, 30 min at 37 °C
[6] = system: Ebola virus; assay type: cell-based
[7] = system: Junin virus (JUNV); assay type: cell-based
[8] = system: rabbit hemorrhagic disease virus (RHDV); test: Rabbit hemorrhagic fever virus studies; assay type: in vivo
[9] = system: NPC1 and TIM1; assay type: cell-based
[10] = system: mTOR Serine 2448 phosphorylation; assay type: cell-based; details: GBM5 cells, single agent 2.0 μM, 6 h
[11] = system: HSP90, GRP78, and HSP70; test: Immuno-fluorescence detection of chaperones in fixed cells; details: HuH7 and HT1080, 0–3.0 μM ± sildenafil 2 μM, 2 h

Sequence of HSP70 ATPase (P0DMV8 whole entry): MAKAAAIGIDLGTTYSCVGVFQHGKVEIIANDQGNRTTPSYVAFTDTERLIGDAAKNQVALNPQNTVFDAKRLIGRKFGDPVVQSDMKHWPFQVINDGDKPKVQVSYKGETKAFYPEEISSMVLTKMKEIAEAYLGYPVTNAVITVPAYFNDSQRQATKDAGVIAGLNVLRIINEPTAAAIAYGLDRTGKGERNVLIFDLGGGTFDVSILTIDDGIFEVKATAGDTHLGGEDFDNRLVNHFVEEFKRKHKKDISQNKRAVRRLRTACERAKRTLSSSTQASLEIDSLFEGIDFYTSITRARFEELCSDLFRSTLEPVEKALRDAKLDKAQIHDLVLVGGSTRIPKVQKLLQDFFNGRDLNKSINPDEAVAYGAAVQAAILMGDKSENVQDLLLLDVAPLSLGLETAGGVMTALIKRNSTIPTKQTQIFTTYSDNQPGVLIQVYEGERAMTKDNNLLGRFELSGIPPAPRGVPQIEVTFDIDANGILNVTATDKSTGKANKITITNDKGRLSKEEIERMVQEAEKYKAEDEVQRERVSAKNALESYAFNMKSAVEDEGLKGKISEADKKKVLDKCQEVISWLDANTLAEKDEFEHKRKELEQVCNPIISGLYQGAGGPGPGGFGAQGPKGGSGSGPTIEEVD
Sequence of HSP27 (P04792 whole entry): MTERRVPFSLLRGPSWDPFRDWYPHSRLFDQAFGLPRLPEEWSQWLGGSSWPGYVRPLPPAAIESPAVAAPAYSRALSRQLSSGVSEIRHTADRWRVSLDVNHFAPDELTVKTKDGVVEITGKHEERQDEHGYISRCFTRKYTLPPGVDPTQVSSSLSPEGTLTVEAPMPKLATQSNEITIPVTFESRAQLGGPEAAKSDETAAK

SMILES | influenza virus-mediated cell lysis / cell killing [1] | expression of glucosidase I and glucosidase IIα [2] | expression of glucosidase IIβ [2] | effect on HSP70 ATPase activity [3] | expression of HSP27 [4] | effect on HSP90 ATPase activity [5] | Ebola virus replication in vitro [6] | JUNV infected cells expressing viral nucleoprotein NP [7] | replication of different strains of JUNV [7] | animals that had died ([8]; […], vehicle approximately 70% at 60 h, P < 0.05, 25 mg/kg) | liver damage assessed by H&E staining of liver sections ([8]; rabbits, RHDV, 25 mg/kg x4) | virus-induced increases in plasma ALT, LDH, and GGT levels ([8]; rabbits, RHDV, 25 mg/kg x4) | expression of virus protein VP60 mRNA in liver ([8]; rabbits, RHDV, at the time of animal nadir, quantitative RT-PCR) | expression of Ebola virus receptors NPC1 and TIM1 in vitro [9] | mTOR Serine 2448 phosphorylation [10] | presence in mouse brain tissue 48 h after dosing (48 h after dosing) | peak brain concentration (mouse, IV bolus 10 mg/kg) [µM] | time to cross the blood brain barrier after dosing (mouse, IV bolus 10 mg/kg) [min] | detection of HSP90, GRP78, and HSP70 in fixed in situ cells [11]
CNC(=O)c1cc(Oc2ccc(NC(=O)Nc3ccc(Cl)c(C(F)(F)F)c3)cc2)ccn1 [sorafenib, reference compound] | reduced cell lysis / cell killing | rapidly reduced the expression | did not impact | inhibitory effects | reduced | inhibitory effects | – | – | – | – | – | – | – | – | – | – | – | – | –
NCC(=O)Nc1ccc(-n2nc(C(F)(F)F)cc2-c2ccc3c(ccc4ccccc43)c2)cc1 [AR-12] | reduced cell lysis / cell killing | rapidly reduced the expression | did not impact | inhibitory effects | reduced | inhibitory effects | suppressed the replication | drastically reduced | potently inhibited | approximately 30% | reduced obvious liver damage | significantly reduced | less expression | reduced the expression | strongly reduced | still detectable | 2 | ≤ 5 | rapid dose- and time-dependent reduction
Cc1ccc(Nc2nccc(N(C)c3ccc4c(C)n(C)nc4c3)n2)cc1S(N)(=O)=O [pazopanib] | reduced cell lysis / cell killing | – | – | inhibitory effects | – | inhibitory effects | – | – | – | – | – | – | – | – | – | – | – | – | –
